Test results reported in patent publication US5330743A, “Aminosaccharide contrast agents for magnetic resonance images” (Magnetic Research, Inc., priority 1992, dated 1994).
Like-named read-outs stand apart in the source and are kept apart here.

Key:
[1] = MR contrast enhancement of kidney in rabbits (T1W spin echo, 1.5 Tesla); format: in vivo, New Zealand White rabbits; conditions: 0.1 mM/kg intravenously; for time at which contrast enhancement of kidney was well demonstrated: after contrast injection
From the text: (§1) TR=750 msec. TE=37 msec. NEX=4. Flow compensation was used.

[2] = MR contrast enhancement of muscle in rabbits (T1W spin echo, 1.5 Tesla); format: in vivo, New Zealand White rabbits; conditions: 0.1 mM/kg intravenously
From the text: as §1

[3] = for time at which contrast enhancement of liver was well demonstrated: after contrast injection
Description: New Zealand White rabbits were used for all magnetic resonance imaging (MRI) experiments. A General Electric 1.5 Tesla system was used with the knee coil. T1W spin echo images were obtained every 10 minutes following contrast injection. Data points were taken as the time at the end of the scan. Each data point was measured in triplicate with sample signal intensities taken from the liver, kidney, and muscle. TR=750 msec. TE=37 msec. NEX=4. Flow compensation was used. Sedation was performed by using an initial injection of intramuscular ketamine at 110 mg/kg and pentobarbital intravenously at 2.2 cc/kg. Sedation was maintained with intermittent pentobarbital injections as needed at 1 cc/kg.
Two rabbits were given gadolinium DTPA bis-glucosamide at 0.1 mM/kg intravenously. MR images were taken before and after the injection of the contrast agent.
MR images were taken before and after the injection of contrast agent.
Gadolinium DTPA bis-pyriodoxamide was given intravenously at 0.1 mM/kg. MR images were taken before and after the injection of contrast agent.
Comparison is made with two animals which were given Gd DTPA (Schering A. G., Berlin, Germany) 0.1 mM/kg intravenously.

[4] = 11 min. P.I., 0.1 mM/kg intravenously
[5] = 21 min. P.I., 0.1 mM/kg intravenously
[6] = 31 min. P.I., 0.1 mM/kg intravenously
[7] = 44 min. P.I., 0.1 mM/kg intravenously
[8] = 54 min. P.I., 0.1 mM/kg intravenously
[9] = 64 min. P.I., 0.1 mM/kg intravenously
[10] = 76 min. P.I., 0.1 mM/kg intravenously
[11] = 85 min. P.I., 0.1 mM/kg intravenously
[12] = Pre-Contrast, 0.1 mM/kg intravenously

Compound | time at which contrast enhancement of kidney was well demonstrated [1] [min] | contrast enhancement, kidney composite (av of 3) ([1]; 11 min. P.I.) [%] | contrast enhancement, kidney composite (av of 3) ([1]; 21 min. P.I.) [%] | contrast enhancement, kidney composite (av of 3) ([1]; 31 min. P.I.) [%] | contrast enhancement, kidney composite (av of 3) ([1]; 44 min. P.I.) [%] | contrast enhancement, kidney composite (av of 3) ([1]; 54 min. P.I.) [%] | contrast enhancement, kidney composite (av of 3) ([1]; 64 min. P.I.) [%] | contrast enhancement, kidney composite (av of 3) ([1]; 76 min. P.I.) [%] | contrast enhancement, kidney composite (av of 3) ([1]; Pre-Contrast) [%] | contrast enhancement, muscle composite (av of 3) ([2]; 11 min. P.I.) [%] | contrast enhancement, muscle composite (av of 3) ([2]; 21 min. P.I.) [%] | contrast enhancement, muscle composite (av of 3) ([2]; 31 min. P.I.) [%] | contrast enhancement, muscle composite (av of 3) ([2]; 44 min. P.I.) [%] | contrast enhancement, muscle composite (av of 3) ([2]; 54 min. P.I.) [%] | contrast enhancement, muscle composite (av of 3) ([2]; 64 min. P.I.) [%] | contrast enhancement, muscle composite (av of 3) ([2]; Pre-Contrast) [%] | contrast enhancement, liver composite (av of 3) [3, 4] [%] | contrast enhancement, liver composite (av of 3) [3, 5] [%] | contrast enhancement, liver composite (av of 3) [3, 6] [%] | contrast enhancement, liver composite (av of 3) [3, 12] [%] | also measured
O=C([O-])CN(CCN(CC(=O)[O-])CC(=O)N[C@H]1C(O)O[C@H](CO)[C@H](O)[C@@H]1O)CCN(CC(=O)[O-])CC(=O)N[C@H]1C(O)O[C@H](CO)[C@H](O)[C@@H]1O.[Gd+3] (stereo partly shown) [Gd DTPA Galactosamide, gadolinium DTPA galactosamide] | 11 | 52.932 | 47.999 | 46.968 | 41.697 | 41.936 | 42.336 | 37.335 | 0.000 | 18.349 | 24.593 | 12.578 | 7.783 | 14.531 | 12.252 | 0.000 | 21.943 | 13.116 | 15.632 | 0.000 | course of contrast enhancement after maximum, kidney [1]: decreased very slowly; time of maximum contrast enhancement, kidney [1]: 22 min; contrast enhancement, kidney composite (av of 3) ([1]; 85 min. P.I.): 26.562%; enhancement of the muscle compared to Gd DTPA [2]: improved enhancement; contrast enhancement, muscle composite (av of 3) ([2]; 76 min. P.I.): -10.121%; contrast enhancement, muscle composite (av of 3) ([2]; 85 min. P.I.): -3.078%; course of contrast enhancement after maximum, liver ([3]; 0.1 mM/kg intravenously): decreased rapidly; enhancement of the liver compared to Gd DTPA ([3]; 0.1 mM/kg intravenously): improved enhancement; time of maximum contrast enhancement, liver ([3]; 0.1 mM/kg intravenously): 11 min; time at which contrast enhancement of liver was well demonstrated ([3]; 0.1 mM/kg intravenously): 11 min; contrast enhancement, liver composite (av of 3) [3, 7]: 11.724%; contrast enhancement, liver composite (av of 3) [3, 8]: 13.202%; contrast enhancement, liver composite (av of 3) [3, 9]: 8.360%; contrast enhancement, liver composite (av of 3) [3, 10]: 11.639%; contrast enhancement, liver composite (av of 3) [3, 11]: 15.451%; time at which contrast agent appears to have been cleared from the liver ([3]; rabbit, in vivo, iv): 76 min
O=C([O-])CN(CCN(CC(=O)[O-])CC(=O)N[C@H]1C(O)O[C@H](CO)[C@@H](O)[C@@H]1O)CCN(CC(=O)[O-])CC(=O)N[C@H]1C(O)O[C@H](CO)[C@@H](O)[C@@H]1O.[Gd+3] (stereo partly shown) [Gd DTPA Bis-Glucosamide, gadolinium DTPA bis-glucosamide] | 11 | 77.532 | 68.552 | 46.320 | 42.172 | 31.288 | 30.596 | 22.065 | 0.000 | 3.791 | -3.481 | -2.205 | -6.098 | -7.962 | -11.035 | 0.000 | 17.157 | 14.172 | 11.053 | 0.000 | course of contrast enhancement after maximum, kidney [1]: decreased gradually; enhancement of the kidney compared to Gd DTPA [1]: improved enhancement; time until which maximum contrast enhancement was maintained, kidney [1]: 22 min; contrast enhancement, muscle composite (av of 3) ([2]; 76 min. P.I.): -5.465%; course of contrast enhancement after maximum, liver ([3]; 0.1 mM/kg intravenously): decreased gradually; decrease in contrast, liver versus kidney ([3]; 0.1 mM/kg intravenously): slower in the liver than in the kidney; enhancement of the liver compared to Gd DTPA ([3]; 0.1 mM/kg intravenously): improved enhancement; time until which maximum contrast enhancement was maintained, liver ([3]; 0.1 mM/kg intravenously): 22 min; time at which contrast enhancement of liver was well demonstrated ([3]; 0.1 mM/kg intravenously): 11 min; contrast enhancement, liver composite (av of 3) [3, 7]: 7.390%; contrast enhancement, liver composite (av of 3) [3, 8]: 9.910%; contrast enhancement, liver composite (av of 3) [3, 9]: 3.151%; contrast enhancement, liver composite (av of 3) [3, 10]: 1.750%
Cc1ncc(CO)c(CNC(=O)CN(CCN(CCN(CC(=O)[O-])CC(=O)NCc2c(CO)cnc(C)c2O)CC(=O)[O-])CC(=O)[O-])c1O.[Gd+3] [Gd DTPA Bis-Pyridoxamide, Gadolinium DTPA bis-pyriodoxamide] | 11 | 72.341 | 50.381 | 53.753 | – | – | – | – | 0.000 | 7.089 | 6.846 | -12.884 | – | – | – | 0.000 | -4.567 | -4.805 | -3.018 | 0.000 | enhancement of the kidney compared to Gd DTPA [1]: improved renal enhancement; time of maximum contrast enhancement, kidney [1]: 11 min; liver enhancement (in words) ([3]; 0.1 mM/kg intravenously): negative liver enhancement
O=C([O-])CN(CCN(CC(=O)[O-])CC(=O)[O-])CCN(CC(=O)[O-])CC(=O)[O-].[Gd+3] [Gd DTPA, gadolinium diethylene triamine pentaacetic acid complex, reference compound] | – | 52.456 | 40.275 | 28.971 | 29.243 | 28.405 | 27.052 | 23.751 | 0.000 | 12.981 | 6.801 | 2.020 | -1.543 | -0.464 | -0.873 | 0.000 | 4.822 | 0.852 | 6.132 | 0.000 | contrast enhancement, kidney composite (av of 3) ([1]; 85 min. P.I.): 14.643%; contrast enhancement, muscle composite (av of 3) ([2]; 76 min. P.I.): -2.407%; contrast enhancement, muscle composite (av of 3) ([2]; 85 min. P.I.): -0.899%; contrast enhancement, liver composite (av of 3) [3, 7]: -2.041%; contrast enhancement, liver composite (av of 3) [3, 8]: -2.714%; contrast enhancement, liver composite (av of 3) [3, 9]: -1.063%; contrast enhancement, liver composite (av of 3) [3, 10]: -0.232%; contrast enhancement, liver composite (av of 3) [3, 11]: -0.422%
